pIC50, pKi: −log10 of the molar value.
What was measured:
[1] = Noncompetitive inhibition of Clostridium welchii neuraminidase by Dixon plot; design: species or system Clostridium perfringens
[2] = (§1) Inhibition of Clostridium welchii neuraminidase; design: species or system Clostridium perfringens
[3] = test system: Clostridium perfringens; assay: as §1

CC(C)(O)CCc1c(O)cc(O)c2c1O[C@H](c1cc3c(cc1O)OC(C)(C)C=C3)CC2=O
pKi [1]: 6.72
pIC50 [2]: 6.42
inhibition [3]: Dose-dependent effect

CC(C)=CCc1cc([C@@H]2CC(=O)c3c(cc(O)c(CC=C(C)C)c3O)O2)c(O)cc1O
pKi [1]: 5.15
pIC50 [2]: 4.97
inhibition [3]: Dose-dependent effect

CC1(C)C=Cc2c(cc3oc(-c4ccc(O)cc4O)cc(=O)c3c2O)O1
pIC50 [2]: 5.22
inhibition [3]: Dose-dependent effect

O=C1C[C@@H](c2ccc(O)cc2O)Oc2cc(O)cc(O)c21
pKi [1]: 5.14
pIC50 [2]: 5.09
inhibition [3]: Dose-dependent effect

O=c1cc(-c2ccc(O)cc2)oc2cc(O)cc(O)c12 [APIGENIN]
pIC50 [2]: 4.66
inhibition [3]: Dose-dependent effect

CC(C)=CCc1c(O)cc2c(c1O)C(=O)C[C@@H](c1cc3c(cc1O)OC(C)(C)C=C3)O2 [CUDRAFLAVANONE A]
pKi [1]: 5.70
pIC50 [2]: 5.82
inhibition [3]: Dose-dependent effect

CC(C)=CC1Oc2cc(O)ccc2-c2oc3cc4c(c(O)c3c(=O)c21)C=CC(C)(C)O4 (stereo not drawn) [CUDRAFLAVONE A]
pKi [1]: 4.35
pIC50 [2]: 4.54
inhibition [3]: Dose-dependent effect

CC(C)=CCc1c(-c2ccc(O)cc2O)oc2cc3c(c(O)c2c1=O)C=CC(C)(C)O3 [CUDRAFLAVONE B]
pKi [1]: 4.97
pIC50 [2]: 4.99
inhibition [3]: Dose-dependent effect

O=C1C[C@@H](c2ccc(O)c(O)c2)Oc2cc(O)cc(O)c21 [ERIODICTYOL]
pIC50 [2]: 4.80
inhibition [3]: Dose-dependent effect

O=c1cc(-c2ccc(O)c(O)c2)oc2cc(O)cc(O)c12 [LUTEOLIN]
pIC50 [2]: 5.34
inhibition [3]: Dose-dependent effect

O=c1c2cc(O)c(O)cc2oc2cc(O)c([C@@H]3O[C@H](CO)[C@@H](O)[C@H](O)[C@H]3O)c(O)c12 [MANGIFERIN]
pIC50 [2]: 4.95
inhibition [3]: Dose-dependent effect

O=C1C[C@@H](c2ccc(O)cc2)Oc2cc(O)cc(O)c21 [NARINGENIN]
pIC50 [2]: 4.24
inhibition [3]: Dose-dependent effect

O=c1cc(-c2ccc(O)cc2O)oc2cc(O)cc(O)c12 [NORARTOCARPETIN]
pKi [1]: 5.71
pIC50 [2]: 5.95
inhibition [3]: Dose-dependent effect

Reference: ChEMBL document CHEMBL1155360, “Structural characteristics of flavanones and flavones from Cudrania tricuspidata for neuraminidase inhibition” (Bioorg Med Chem Lett, 2009)
